How the values were obtained:
Assay type in all cases: physicochemical
[1] = Compressibility: tablets on instrumented Carver press, no excipients, three-point bend stress; conditions: current experimental conditions
Description: Compressibility of a second sample of magnesium citrate glycinate was evaluated using an instrumented Carver press. Approximately 1.6 g, 5 mm thick tablets were compressed using the 0.4″×0.9″ rectangular tooling. No excipients were used. The sides of the tooling were slightly dusted with magnesium stearate in order to facilitate tablet ejection and eliminate sticking. The tablets were subjected to a three-point bend stress using a TA.XT2-Plus texture analyzer (from Stable Micro Systems of Surrey, England). Flexural strength and young modulus of the compact were measured. In addition, compact density was calculated from the weight and size measurements of the tablets.
An attempt was made to compare compressibility of magnesium citrate glycinate with those of individual salts, magnesium citrate tribasic and magnesium bis-glycinate.

[2] = Aqueous stability of 10% w/w solution standing for 24 hours, visual inspection; conditions: 10% w/w solution in water
[3] = Apparent density measurement
Description: In addition, particle size distribution and apparent density of di-magnesium citrate glycinate co-salt were measured.

With `NCC(=O)[O-].NCC(=O)[O-].[Mg+2]` [magnesium bis-glycinate] the “Compressibility, tablet formation” value [1] was “no cohesive tablets were obtained”.

With `O=C([O-])CC(O)(CC(=O)[O-])C(=O)[O-].O=C([O-])CC(O)(CC(=O)[O-])C(=O)[O-].[Mg+2].[Mg+2].[Mg+2]` [magnesium citrate tribasic] the “Compressibility, tablet formation” value [1] was “no cohesive tablets were obtained”.

For `NCC(=O)[O-].O=C([O-])CC(O)(CC(=O)[O-])C(=O)[O-].[Mg+2].[Mg+2]` [magnesium citrate glycinate co-salt], the “Aqueous stability, change of clear and colorless solution” value [2] was “no change” and the Apparent density [3] was 1740 kg/m^3.
